From paper PMC7170383 (Pharmaceutical Biology, 2020)

Key:
CYP2A6 = target: T1, CYP2A6 (Homo sapiens, UniProt P11509); assay: CYP2A6 inhibition in pooled human liver microsomes (coumarin 7-hydroxylation); type: in vitro ADME; details: CEP 100 μM, pooled HLMs
T1 construct: from tissue; host or cells: pooled human liver microsomes
T1 sequence (P11509 1-494): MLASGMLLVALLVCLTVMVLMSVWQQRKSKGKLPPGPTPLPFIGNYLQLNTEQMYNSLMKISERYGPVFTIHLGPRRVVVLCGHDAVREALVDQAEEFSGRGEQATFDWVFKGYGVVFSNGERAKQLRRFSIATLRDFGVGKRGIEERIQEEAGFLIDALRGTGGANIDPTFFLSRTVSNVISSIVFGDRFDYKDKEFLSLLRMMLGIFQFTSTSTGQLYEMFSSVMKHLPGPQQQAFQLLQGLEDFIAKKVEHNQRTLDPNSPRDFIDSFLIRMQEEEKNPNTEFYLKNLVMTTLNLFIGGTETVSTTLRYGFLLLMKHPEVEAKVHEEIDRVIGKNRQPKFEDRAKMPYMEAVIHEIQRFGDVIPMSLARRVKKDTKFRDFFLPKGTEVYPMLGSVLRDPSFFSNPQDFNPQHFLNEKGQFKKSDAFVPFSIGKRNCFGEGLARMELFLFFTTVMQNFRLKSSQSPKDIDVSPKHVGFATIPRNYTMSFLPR
Experimental: (§1) Marker reactions of eight CYP isoforms were examined, and apparent Km values were estimated to characterize the pooled HLMs. All incubations were performed in triplicate, and the mean values were utilized. The typical incubation systems contained 100 mM potassium phosphate buffer (pH 7.4), NADPH generating system (1 mM NADP^+, 10 mM glucose-6-phosphate, 1 U/mL of glucose-6-phosphate dehydrogenase and 4 mM MgCl2), the appropriate concentration of HLMs, a corresponding probe substrate and hispidulin (or positive inhibitor for different probe reactions) in a final volume of 200 μL.
(§2) There was a 3-min preincubation period (at 37 °C) before the reaction was initiated by adding an NADPH-generating system. The reaction was terminated by adding a 100 μL acetonitrile (10% trichloroacetic acid for CYP2A6) internal standard mix, and the solution was placed on ice. The mixture was centrifuged at 12,000 rpm for 10 min, and an aliquot (50 μL) of supernatant was transferred for HPLC analysis. The instrument used in this study was Agilent 1260 series instrument with DAD and FLD detector, and the quantitative assay for the corresponding metabolites was performed as previously reported (Lang et al. [2016]; Zhang et al. [2017]). The quantitative analysis of metabolites can represent the activity of corresponding CYPs.

CYP2C8 = target: T2, CYP2C8 (Homo sapiens, UniProt P10632); assay: CYP2C8 inhibition in pooled human liver microsomes (paclitaxel 6α-hydroxylation); type: in vitro ADME; details: CEP 100 μM, pooled HLMs
T2 construct: from tissue; host or cells: pooled human liver microsomes
T2 sequence (P10632 1-490): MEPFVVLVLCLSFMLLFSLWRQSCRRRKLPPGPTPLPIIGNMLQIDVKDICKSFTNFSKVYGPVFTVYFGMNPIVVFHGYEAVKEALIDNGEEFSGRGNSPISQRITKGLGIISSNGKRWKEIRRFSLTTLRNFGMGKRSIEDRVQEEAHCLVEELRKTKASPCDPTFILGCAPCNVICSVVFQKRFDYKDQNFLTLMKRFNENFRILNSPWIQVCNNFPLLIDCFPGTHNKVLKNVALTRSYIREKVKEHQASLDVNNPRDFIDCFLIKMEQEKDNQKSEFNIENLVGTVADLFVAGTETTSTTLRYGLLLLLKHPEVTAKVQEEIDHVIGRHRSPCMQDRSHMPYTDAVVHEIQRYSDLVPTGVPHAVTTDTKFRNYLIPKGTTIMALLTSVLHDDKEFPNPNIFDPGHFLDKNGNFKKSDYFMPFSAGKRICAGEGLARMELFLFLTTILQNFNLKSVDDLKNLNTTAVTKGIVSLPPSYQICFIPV
Experimental: as §1, §2

CYP2E1 [1] = target: T3, CYP2E1 (Homo sapiens, UniProt P05181); assay: Time-dependent inhibition of CYP2E1 in human liver microsomes; type: in vitro ADME; details: CEP 20 μM, pre-incubation with HLM 30 min, incubation 0–30 min
T3 construct: CYP2E1 catalysed reactions (chlorzoxazone 6-hydroxylation) in pooled HLM; from tissue; host or cells: pooled human liver microsomes
Experimental: (§3) After incubation, an aliquot (20 μL) was transferred to another incubation tube (final volume 200 μL) containing an NADPH-generating system and probe substrates whose final concentrations were approximate to Km. Then, further incubations were performed to measure the residual activity. After being incubated for 0, 5, 10, 15, and 30 min, the reactions were terminated by adding a 100 μL acetonitrile internal standard mix and then placed on ice; the corresponding metabolites were determined by HPLC.

CYP2C9 [2] = target: T4, CYP2C9 (Homo sapiens, UniProt P11712); assay: Time-dependent inhibition of CYP2C9 in human liver microsomes; type: in vitro ADME; details: CEP 20 μM, pre-incubation with HLM 30 min, incubation 0–30 min
T4 construct: from tissue; host or cells: pooled human liver microsomes
Experimental: as §3

[3] = set-up: method as in Jiang et al. [2016]; details: rats, orally administered CEP 10 mg/kg; ref Jiang et al. [2016]; cited from earlier work
CYP3A4 [4] = target: T5, CYP3A4 (Homo sapiens, UniProt P08684); assay: Time-dependent inhibition of CYP3A4 in human liver microsomes; type: in vitro ADME
T5 construct: CYP3A4 catalysed reactions (testosterone 6β-hydroxylation) in pooled HLM; from tissue; host or cells: pooled human liver microsomes
Experimental: as §3

CYP2E1 [5] = target: T3, CYP2E1; assay: CYP2E1 inhibition in pooled human liver microsomes (chlorzoxazone 6-hydroxylation); type: in vitro ADME
Experimental: as §1, §2
(§4) The enzyme kinetic parameters for the probe reaction were estimated from the best fit line, using least-squares linear regression of the inverse substrate concentration versus the inverse velocity (Lineweaver-Burk plots), and the mean values were used to calculate Vmax and Km. Inhibition data from the experiments that were conducted using multiple compound concentrations were represented by Dixon plots, and inhibition constant (Ki) values were calculated using non-linear regression according to the following equation: v=(VmaxS/Km(1+I/Ki)+S) where I is the concentration of the compound, Ki is the inhibition constant, S is the concentration of the substrate, and Km is the substrate concentration at half the maximum velocity (Vmax) of the reaction. The mechanism of the inhibition was inspected using the Lineweaver–Burk plots and the enzyme inhibition models. The data comparison was performed using Student’s t-test and performed using IBM SPSS statistics version 20 (IBM SPSS Inc., Armonk, NY).

CYP3A4 [6] = target: T5, CYP3A4; assay: CYP3A4 inhibition in pooled human liver microsomes (testosterone 6β-hydroxylation); type: in vitro ADME
Experimental: All incubations were performed in triplicate, and the mean values were utilized.
The reaction was terminated by adding a 100 μL acetonitrile (10% trichloroacetic acid for CYP2A6) internal standard mix, and the solution was placed on ice. The mixture was centrifuged at 12,000 rpm for 10 min, and an aliquot (50 μL) of supernatant was transferred for HPLC analysis.
The enzyme kinetic parameters for the probe reaction were estimated from the best fit line, using least-squares linear regression of the inverse substrate concentration versus the inverse velocity (Lineweaver-Burk plots), and the mean values were used to calculate Vmax and Km. […] The mechanism of the inhibition was inspected using the Lineweaver–Burk plots and the enzyme inhibition models.

CYP2C9 [7] = target: T4, CYP2C9; assay: CYP2C9 inhibition in pooled human liver microsomes (diclofenac 4′-hydroxylation); type: in vitro ADME
Experimental: as §1, §2, §4

CYP2D6 = target: T6, CYP2D6 (Homo sapiens, UniProt P10635); assay: CYP2D6 inhibition in pooled human liver microsomes (dextromethorphan O-demethylation); type: in vitro ADME; details: CEP 100 μM, pooled HLMs
T6 construct: from tissue; host or cells: pooled human liver microsomes
Experimental: as §1, §2

CYP2C19 = target: T7, CYP2C19 (Homo sapiens, UniProt P33261); assay: CYP2C19 inhibition in pooled human liver microsomes (S-mephenytoin 4-hydroxylation); type: in vitro ADME; details: CEP 100 μM, pooled HLMs
T7 construct: from tissue; host or cells: pooled human liver microsomes
Experimental: as §1, §2

CYP1A2 = target: T8, CYP1A2 (Homo sapiens, UniProt P05177); assay: CYP1A2 inhibition in pooled human liver microsomes (phenacetin O-deethylation); type: in vitro ADME; details: CEP 100 μM, pooled HLMs
T8 construct: from tissue; host or cells: pooled human liver microsomes
T8 sequence (P05177 1-516): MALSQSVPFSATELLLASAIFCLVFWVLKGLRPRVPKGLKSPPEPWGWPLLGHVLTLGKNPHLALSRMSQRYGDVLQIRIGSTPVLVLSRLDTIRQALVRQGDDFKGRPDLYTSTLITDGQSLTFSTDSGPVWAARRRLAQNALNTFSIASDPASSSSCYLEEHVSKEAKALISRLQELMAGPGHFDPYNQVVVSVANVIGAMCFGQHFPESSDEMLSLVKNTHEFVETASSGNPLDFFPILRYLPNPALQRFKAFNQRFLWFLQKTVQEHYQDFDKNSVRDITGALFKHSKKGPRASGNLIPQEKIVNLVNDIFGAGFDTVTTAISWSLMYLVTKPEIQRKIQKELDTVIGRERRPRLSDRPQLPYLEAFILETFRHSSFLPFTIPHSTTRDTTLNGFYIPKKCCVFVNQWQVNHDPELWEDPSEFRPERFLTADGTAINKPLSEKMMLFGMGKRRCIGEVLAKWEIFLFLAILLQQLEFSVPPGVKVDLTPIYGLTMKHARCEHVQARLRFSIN
Experimental: as §1, §2

T5 sequence (P08684 whole entry): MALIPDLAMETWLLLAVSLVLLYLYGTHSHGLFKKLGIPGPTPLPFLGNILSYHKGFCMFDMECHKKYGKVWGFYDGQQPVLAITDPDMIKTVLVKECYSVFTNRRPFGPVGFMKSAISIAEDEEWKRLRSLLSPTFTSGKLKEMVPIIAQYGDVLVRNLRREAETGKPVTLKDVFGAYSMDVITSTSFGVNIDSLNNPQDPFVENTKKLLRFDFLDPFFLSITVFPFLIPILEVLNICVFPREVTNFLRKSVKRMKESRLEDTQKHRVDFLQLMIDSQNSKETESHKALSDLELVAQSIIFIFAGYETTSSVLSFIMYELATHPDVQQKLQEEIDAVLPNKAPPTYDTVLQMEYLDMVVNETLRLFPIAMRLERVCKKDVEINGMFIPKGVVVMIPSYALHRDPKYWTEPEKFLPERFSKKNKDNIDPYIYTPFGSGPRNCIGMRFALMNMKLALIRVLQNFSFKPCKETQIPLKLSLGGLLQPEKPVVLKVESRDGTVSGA
T3 sequence (P05181 whole entry): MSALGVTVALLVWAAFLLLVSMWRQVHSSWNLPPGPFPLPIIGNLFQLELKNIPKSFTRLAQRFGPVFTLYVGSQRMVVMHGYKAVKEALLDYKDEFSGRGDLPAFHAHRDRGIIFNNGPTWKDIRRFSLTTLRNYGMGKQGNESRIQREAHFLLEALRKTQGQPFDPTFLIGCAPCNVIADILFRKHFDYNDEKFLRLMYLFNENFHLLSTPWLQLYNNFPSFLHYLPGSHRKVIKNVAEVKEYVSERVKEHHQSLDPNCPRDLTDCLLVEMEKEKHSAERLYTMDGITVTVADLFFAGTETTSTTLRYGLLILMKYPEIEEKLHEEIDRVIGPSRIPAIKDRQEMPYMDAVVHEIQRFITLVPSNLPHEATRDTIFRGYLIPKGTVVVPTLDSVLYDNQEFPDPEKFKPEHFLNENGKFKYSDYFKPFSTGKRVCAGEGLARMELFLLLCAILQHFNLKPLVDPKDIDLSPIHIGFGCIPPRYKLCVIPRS
T4 sequence (P11712 whole entry): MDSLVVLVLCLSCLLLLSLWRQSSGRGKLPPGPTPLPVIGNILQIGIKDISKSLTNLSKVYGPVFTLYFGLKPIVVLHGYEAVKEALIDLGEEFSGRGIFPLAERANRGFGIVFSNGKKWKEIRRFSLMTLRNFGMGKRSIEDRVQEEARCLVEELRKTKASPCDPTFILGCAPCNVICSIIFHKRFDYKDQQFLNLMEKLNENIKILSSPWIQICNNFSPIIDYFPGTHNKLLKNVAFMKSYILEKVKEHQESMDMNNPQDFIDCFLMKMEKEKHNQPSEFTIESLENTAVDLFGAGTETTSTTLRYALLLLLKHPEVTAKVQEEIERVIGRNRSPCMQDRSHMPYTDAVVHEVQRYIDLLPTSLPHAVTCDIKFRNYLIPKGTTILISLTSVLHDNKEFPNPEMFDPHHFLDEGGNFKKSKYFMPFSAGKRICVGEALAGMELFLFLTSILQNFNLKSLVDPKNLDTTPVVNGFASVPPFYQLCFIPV
T6 sequence (P10635 whole entry): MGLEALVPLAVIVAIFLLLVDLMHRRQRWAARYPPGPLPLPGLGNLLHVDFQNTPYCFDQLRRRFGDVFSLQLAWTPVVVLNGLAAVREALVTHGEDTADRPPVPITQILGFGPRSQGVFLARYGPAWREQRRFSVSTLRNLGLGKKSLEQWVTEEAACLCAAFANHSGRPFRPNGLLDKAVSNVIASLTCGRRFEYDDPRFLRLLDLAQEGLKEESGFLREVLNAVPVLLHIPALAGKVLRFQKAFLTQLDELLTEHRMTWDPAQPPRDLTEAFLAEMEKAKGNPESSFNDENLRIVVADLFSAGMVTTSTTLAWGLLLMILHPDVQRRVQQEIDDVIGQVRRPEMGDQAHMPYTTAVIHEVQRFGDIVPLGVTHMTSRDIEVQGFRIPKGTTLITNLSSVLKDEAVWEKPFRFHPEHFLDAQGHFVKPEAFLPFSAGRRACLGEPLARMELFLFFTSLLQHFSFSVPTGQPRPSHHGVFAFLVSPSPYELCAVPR
T7 sequence (P33261 whole entry): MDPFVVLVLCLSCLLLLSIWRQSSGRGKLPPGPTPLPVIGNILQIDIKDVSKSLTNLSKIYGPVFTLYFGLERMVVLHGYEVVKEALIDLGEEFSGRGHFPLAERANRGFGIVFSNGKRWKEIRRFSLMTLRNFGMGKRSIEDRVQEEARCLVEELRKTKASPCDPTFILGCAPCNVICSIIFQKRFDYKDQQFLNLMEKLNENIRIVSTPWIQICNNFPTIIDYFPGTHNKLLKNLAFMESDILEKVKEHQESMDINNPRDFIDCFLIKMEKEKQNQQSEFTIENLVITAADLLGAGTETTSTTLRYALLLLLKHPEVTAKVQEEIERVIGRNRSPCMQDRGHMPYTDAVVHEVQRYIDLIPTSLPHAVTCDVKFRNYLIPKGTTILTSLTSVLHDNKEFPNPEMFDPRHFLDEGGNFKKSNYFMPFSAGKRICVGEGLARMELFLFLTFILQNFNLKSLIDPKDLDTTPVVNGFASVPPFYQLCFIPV

COc1ccc2cc1Oc1ccc(cc1)C[C@H]1c3c(cc4c(c3Oc3cc5c(cc3OC)CCN(C)[C@@H]5C2)OCO4)CCN1C [CEP, Cepharanthine]
Effect on CYP2A6 activity (CYP2A6): not affected | Effect on CYP2C8 activity (CYP2C8): not affected | Time-dependent change of CYP2E1 activity (CYP2E1 [1]): not affected | Time-dependent change of CYP2C9 activity (CYP2C9 [2]): not affected | plasma Cmax [3]: approximately 0.05 μg/mL | Time-dependent change of CYP3A4 activity (CYP3A4 [4]; CEP 20 μM, pre-incubation with HLM 30 min, incubation 0–30 min): decreased with the incubation time | CYP3A4 inactivated each minute at a saturating concentration of CEP (CYP3A4 [4]; HLM, from Kinact): about 5.8% | Ki (CYP2E1 [5]): 11.8 µM | activity at 100 μM (CYP2E1 [5]; human, pooled human liver microsomes, pH 7.4, probe chlorzoxazone (6-hydroxylation), read-out: CYP2E1 activity, % of control activity): 23.6% | Inhibition manner on CYP2E1 (Lineweaver–Burk plots) (CYP2E1 [5]; pooled HLMs): competitive | IC50 (CYP2E1 [5]; pooled HLMs, chlorzoxazone 6-hydroxylation): 25.6 µM | activity at 100 μM (CYP3A4 [6]; human, pooled human liver microsomes, pH 7.4, probe testosterone (6β-hydroxylation), read-out: CYP3A4 activity, % of control activity): 12.6% | Inhibition manner on CYP3A4 (Lineweaver–Burk plots) (CYP3A4 [6]; pooled HLMs): non-competitive | Ki (CYP2C9 [7]): 13.1 µM | activity at 100 μM (CYP2C9 [7]; human, pooled human liver microsomes, pH 7.4, probe diclofenac (4′-hydroxylation), read-out: CYP2C9 activity, % of control activity): 18.1% | Inhibition manner on CYP2C9 (Lineweaver–Burk plots) (CYP2C9 [7]; pooled HLMs): competitive | IC50 (CYP2C9 [7]; pooled HLMs, diclofenac 4′-hydroxylation): 24.6 µM | Effect on CYP2D6 activity (CYP2D6): not affected | Effect on CYP2C19 activity (CYP2C19): not affected | Effect on CYP1A2 activity (CYP1A2): not affected
